Measured values: US4126616A, “N-propylnorapomorphine diesters” (Hinshaw; William B., priority 1976, dated 1978)
Structures can show the parent of a compound that is named as a salt. Where two headings read alike, the source gives them in different places.

Tested on: caudate lesioned mouse
Assay: caudate lesioned mouse test (anti-parkinson activity)
Assay type: in vivo
Details: for ED50: caudate lesioned mouse, read-out: ED50; for responders at 5.2 µmol/kg / responders at 26 µmol/kg / responders at 13 µmol/kg / responders at 132 µmol/kg / responders at 52 µmol/kg / responders at 104 µmol/kg: Mus musculus; for responders at 5.2 µmol/kg: dose 0.0052 m. mole/kg; for responders at 13 µmol/kg: dose 0.013 m. mole/kg; for responders at 132 µmol/kg: dose 0.132 m. mole/kg; for Molar Potency Ratio Claimed/Ref. Ester: claimed N-propyl ester vs corresponding N-methyl reference ester
Experimental: An index of anti-parkinson activity was determined using the caudate lesioned mouse test described by Lotti, Life Sci., 10, 781-789 (1971). The mice having unilateral lesions of the caudate nucleus prepared according to the method of Lotti supra were observed immediately after the surgical procedure for strong postural asymmetries directed to the same side as the lesion. When this asymmetry was not observed, the mice were discarded. Operated mice were allowed at least 14 days to recover prior to drug testing. The lesioned mice were tested with apomorphine using 1.7 mg./kg. of base administered intraperitoneally in a 1% suspension in gum tragacanth. […] Only those mice which twisted or circled toward the lesioned side in all three test periods after the apomorphine injection were retained for further drug testing. The test drugs were all administered in 1% gum tragacanth suspension in a volume of 0.1 ml./10 g. of body weight. Doses were expressed in mg./kg. of free base.
Results of tests in the caudate lesioned mouse test described above which were obtained on the compounds of the invention are given in the table below identified, in each case, by the example numbers above where their preparations are described. Corresponding data for reference apomorphine diesters described in German patent application No. 2,154,162 are given in a side-by-side relationship for a number of the species. The reference compounds, designated Ref. 1, Ref. 1B, Ref. 1C, Ref. 1D, Ref. 1E, Ref. 1F, Ref. 2 and Ref. 2A correspond, respectively, to the compounds of the invention identified by Examples 1, 1B, 1C, 1D, 1E, 1F, 2 and 2A and differ from the latter only in having a methyl group on the apomorphine nitrogen from instead of an n-propyl group as present in the instant compounds.

[1] = 0.5 h, dose 0.026 m. mole/kg, 1/2 h post-drug, read-out: No. Mice Affected/No. Mice Tested, 1/2 h (converted)
[2] = 6 h post-drug, read-out: No. Mice Affected/No. Mice Tested, 6 h
[3] = 24 h post-drug, read-out: No. Mice Affected/No. Mice Tested, 24 h
[4] = dose 0.026 m. mole/kg, 1 h post-drug, read-out: No. Mice Affected/No. Mice Tested, 1 h (converted)
[5] = dose 0.026 m. mole/kg, 2 h post-drug, read-out: No. Mice Affected/No. Mice Tested, 2 h (converted)
[6] = dose 0.026 m. mole/kg, 4 h post-drug, read-out: No. Mice Affected/No. Mice Tested, 4 h (converted)
[7] = dose 0.026 m. mole/kg, 6 h post-drug, read-out: No. Mice Affected/No. Mice Tested, 6 h (converted)
[8] = dose 0.026 m. mole/kg, 24 h post-drug, read-out: No. Mice Affected/No. Mice Tested, 24 h
[9] = dose 0.026 m. mole/kg, total, read-out: No. Mice Affected/No. Mice Tested, Total (converted)
[10] = 0.5 h, 1/2 h post-drug, read-out: No. Mice Affected/No. Mice Tested, 1/2 h (converted)
[11] = 1 h post-drug, read-out: No. Mice Affected/No. Mice Tested, 1 h (converted)
[12] = 2 h post-drug, read-out: No. Mice Affected/No. Mice Tested, 2 h (converted)
[13] = 4 h post-drug, read-out: No. Mice Affected/No. Mice Tested, 4 h (converted)
[14] = total, read-out: No. Mice Affected/No. Mice Tested, Total (converted)
[15] = 6 h post-drug, read-out: No. Mice Affected/No. Mice Tested, 6 h (converted)
[16] = 24 h post-drug, read-out: No. Mice Affected/No. Mice Tested, 24 h (converted)
[17] = 0.5 h, read-out: No. Mice Affected/No. Mice Tested, 1/2 h
[18] = 1 h, read-out: No. Mice Affected/No. Mice Tested, 1 h
[19] = 4 h, read-out: No. Mice Affected/No. Mice Tested, 4 h
[20] = 6 h, read-out: No. Mice Affected/No. Mice Tested, 6 h
[21] = 24 h, read-out: No. Mice Affected/No. Mice Tested, 24 h
[22] = read-out: No. Mice Affected/No. Mice Tested, Total

SMILES	ED50 [µmol/kg]	responders at 26 µmol/kg [1] [%]	responders at 26 µmol/kg [4] [%]	responders at 26 µmol/kg [5] [%]	responders at 26 µmol/kg [6] [%]	responders at 26 µmol/kg [7] [%]	responders at 26 µmol/kg [8] [%]	responders at 26 µmol/kg [9] [%]	responders at 132 µmol/kg [10] [%]	responders at 132 µmol/kg [11] [%]	responders at 132 µmol/kg [12] [%]	responders at 132 µmol/kg [13] [%]	responders at 132 µmol/kg [15] [%]	responders at 132 µmol/kg [16] [%]	responders at 132 µmol/kg [14] [%]	Molar Potency Ratio Claimed/Ref. Ester	also measured
CCCN1CCc2cccc3c2C1Cc1ccc(OC(=O)c2cc(OC)c(OC)c(OC)c2)c(OC(=O)c2cc(OC)c(OC)c(OC)c2)c1-3 (centres unmarked) [Ex. 1L, N-Propylnorapomorphine bis-3,4,5-trimethoxybenzoate hydrochloride]	15	75	75	100	100	100	0	100	–	–	–	–	–	–	–	–	responders at 5.2 µmol/kg (0.5 h, 1/2 h post-drug, read-out: No. Mice Affected/No. Mice Tested, 1/2 h): 0%; responders at 5.2 µmol/kg (1 h post-drug, read-out: No. Mice Affected/No. Mice Tested, 1 h): 0%; responders at 5.2 µmol/kg (2 h post-drug, read-out: No. Mice Affected/No. Mice Tested, 2 h): 0%; responders at 5.2 µmol/kg (4 h post-drug, read-out: No. Mice Affected/No. Mice Tested, 4 h): 0%; responders at 5.2 µmol/kg [2]: 0%; responders at 5.2 µmol/kg [3]: 0%; responders at 5.2 µmol/kg (total, read-out: No. Mice Affected/No. Mice Tested, Total): 0%
CCCN1CCc2cccc3c2C1Cc1ccc(OC(=O)C2CC2)c(OC(=O)C2CC2)c1-3 (centres unmarked) [Ex. 1M, N-Propylnorapomorphine bis-cyclopropanecarboxylate]	13	100	75	75	75	75	0	100	100	100	100	100	100	100	100	–	responders at 13 µmol/kg [10]: 50%; responders at 13 µmol/kg [11]: 50%; responders at 13 µmol/kg [12]: 50%; responders at 13 µmol/kg [13]: 25%; responders at 13 µmol/kg [2]: 0%; responders at 13 µmol/kg [3]: 0%; responders at 13 µmol/kg [14]: 50%
CCCN1CCc2cccc3c2C1Cc1ccc(OC(C)=O)c(OC(C)=O)c1-3 (centres unmarked) [Ex. 2, N-propylnorapomorphine diacetate]	–	–	–	–	–	–	–	–	–	–	–	–	–	–	–	≥ 16	responders at 26 µmol/kg [17]: 100%; responders at 52 µmol/kg [17]: 25%; responders at 104 µmol/kg [17]: 50%; responders at 26 µmol/kg [18]: 100%; responders at 52 µmol/kg [18]: 25%; responders at 104 µmol/kg [18]: 75%; responders at 26 µmol/kg [19]: 50%; responders at 52 µmol/kg [19]: 25%; responders at 104 µmol/kg [19]: 25%; responders at 26 µmol/kg [20]: 100%; responders at 52 µmol/kg [20]: 75%; responders at 104 µmol/kg [20]: 50%; responders at 26 µmol/kg [21]: 50%; responders at 52 µmol/kg [21]: 0%; responders at 104 µmol/kg [21]: 50%; responders at 26 µmol/kg [22]: 100%; responders at 52 µmol/kg [22]: 75%; responders at 104 µmol/kg [22]: 75%
CCCCC(=O)Oc1ccc2c(c1OC(=O)CCCC)-c1cccc3c1C(C2)N(CCC)CC3 (centres unmarked) [Ex. 2A, N-propylnorapomorphine dipentanoate hydrochloride]	–	0	0	0	0	0	0	0	50	75	75	75	75	75	75	≥ 3	–
